According to patent US9133158B2, “Bicyclic dihydroisoquinoline-1-one derivatives” (Hoffmann-La Roche Inc., priority 2011, dated 2015):

Assays:
human CYP11B2 = target: T1, human CYP11B2 (Homo sapiens, UniProt P19099); experiment: G-402 cellular enzyme assay, human CYP11B2 (aldosterone release, HTRF); type: cell-based; settings: G-402 cells, 1 μM Deoxycorticosterone
T1 construct: expressed in transfected cells
T1 sequence (P19099 25-503): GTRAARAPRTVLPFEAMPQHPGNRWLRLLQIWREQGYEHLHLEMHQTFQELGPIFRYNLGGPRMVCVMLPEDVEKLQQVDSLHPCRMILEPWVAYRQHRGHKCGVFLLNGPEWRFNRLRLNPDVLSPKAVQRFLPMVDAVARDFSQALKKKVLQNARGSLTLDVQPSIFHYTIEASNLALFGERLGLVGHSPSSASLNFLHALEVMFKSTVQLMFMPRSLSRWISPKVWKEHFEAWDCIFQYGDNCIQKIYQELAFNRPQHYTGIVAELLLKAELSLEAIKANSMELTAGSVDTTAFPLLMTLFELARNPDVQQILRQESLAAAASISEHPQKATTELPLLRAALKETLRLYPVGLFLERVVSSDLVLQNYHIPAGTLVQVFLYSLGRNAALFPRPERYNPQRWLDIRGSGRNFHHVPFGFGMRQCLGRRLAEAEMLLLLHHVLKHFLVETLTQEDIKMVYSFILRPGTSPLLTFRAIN
Procedure, shortened: (§1)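 Stable G-402 transfectants; 16 h incubation with inhibitor plus substrate — CYP11B2: 1 μM deoxycorticosterone, aldosterone read; CYP11B1: 1 μM deoxycortisol, cortisol read. HTRF on supernatant. Medium DMEM/F12, 2.5% charcoal FCS. EC50 via MMF sigmoidal fit.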

human CYP11B1 = target: T2, human CYP11B1 (Homo sapiens, UniProt P15538); experiment: G-402 cellular enzyme assay, human CYP11B1 (cortisol release, HTRF); type: cell-based; settings: G-402 cells, 1 μM Deoxycortisol
T2 construct: expressed in transfected cells
T2 sequence (P15538 25-503): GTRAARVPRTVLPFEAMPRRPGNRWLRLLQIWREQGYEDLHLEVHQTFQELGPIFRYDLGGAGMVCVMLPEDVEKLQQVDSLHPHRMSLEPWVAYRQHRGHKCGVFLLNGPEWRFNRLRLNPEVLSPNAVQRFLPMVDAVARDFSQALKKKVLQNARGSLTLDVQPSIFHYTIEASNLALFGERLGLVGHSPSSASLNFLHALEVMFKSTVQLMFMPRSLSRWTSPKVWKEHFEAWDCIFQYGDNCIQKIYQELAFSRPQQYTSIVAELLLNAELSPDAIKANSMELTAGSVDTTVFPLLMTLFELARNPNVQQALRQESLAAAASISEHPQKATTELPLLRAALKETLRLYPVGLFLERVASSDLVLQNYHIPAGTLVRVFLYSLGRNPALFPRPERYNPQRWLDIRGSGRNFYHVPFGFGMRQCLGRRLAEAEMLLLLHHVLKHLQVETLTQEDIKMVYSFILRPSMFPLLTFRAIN
Procedure, shortened: as §1

EC50 (human CYP11B2) [nM]	EC50 (human CYP11B1) [nM]	SMILES
128	1050	CC(c1cncc(N2CCc3cc(Cl)ccc3C2=O)c1)N1CCCC1=O (stereo not shown) [Example 274, 6-Chloro-2-{5-[1-(2-oxo-pyrrolidin-1-yl)-ethyl]-pyridin-3-yl}-3,4-dihydro-2H-isoquinolin-1-one]
953	11200	COc1cncc(N2CCc3nc(O)ccc3C2=O)c1 [Example 139, 2-Hydroxy-6-(5-methoxy-pyridin-3-yl)-7,8-dihydro-6H-[1,6]naphthyridin-5-one]
3.4	138	CC1(C)c2cc(Cl)ccc2C(=O)N1c1cncc(CNc2cc[nH]n2)c1 [Example 381, 5-Chloro-3,3-dimethyl-2-{5-[(1H-pyrazol-3-ylamino)-methyl]-pyridin-3-yl}-2,3-dihydro-isoindol-1-one]
258	4450	CCc1nc(C)cn1Cc1cncc(N2CCc3cc(Cl)ccc3C2=O)c1 [Example 143, 6-Chloro-2-[5-(2-ethyl-4-methyl-imidazol-1-ylmethyl)-pyridin-3-yl]-3,4-dihydro-2H-isoquinolin-1-one]
6	418	O=C1c2ccc(Cl)cc2C2(CC2)N1c1cncc(CNc2cc[nH]n2)c1 [Example 386, 6′-Chloro-2′-{5-[(1H-pyrazol-3-ylamino)methyl]pyridin-3-yl}spiro [cyclopropane-1,1′-isoindol]-3′(2′H)-one]
121	3340	CCC1c2cc(Cl)ccc2C(=O)N1c1cccnc1 (stereo not shown) [Example 125, 5-Chloro-3-ethyl-2-pyridin-3-yl-2,3-dihydro-isoindol-1-one]
65.6	9410	CCC(=O)N[C@@H]1CCCc2c1cncc2N1C(=O)c2ccc(Cl)cc2[C@H]1C (single isomer, unassigned) [Example 361, N-[(R or S)-4-((R or S)-5-Chloro-3-methyl-1-oxo-1,3-dihydro-isoindol-2-yl)-5,6,7,8-tetrahydro-isoquinolin-8-yl]-propionamide]
109	5130	CC(=O)NC1CCc2c1cncc2N1Cc2cc(Cl)ccc2C1=O (single isomer, unassigned; (+)) [Example 319, (+)-N—[(R or S)-4-(5-Chloro-1-oxo-1,3-dihydro-isoindol-2-yl)-6,7-dihydro-5H-[2]pyrindin-7-yl]-acetamide]
37.3	486	CC(OCc1cncc(N2CCc3cc(Cl)ccc3C2=O)c1)C(F)(F)F (stereo not shown) [Example 195, 6-Chloro-2-[5-(2,2,2-trifluoro-1-methyl-ethoxymethyl)-pyridin-3-yl]-3,4-dihydro-2H-isoquinolin-1-one]
316	5470	CCC1c2cc(Cl)ccc2C(=O)N1c1cncc(CNS(=O)(=O)CC)c1 (single isomer, unassigned) [Example 390, Ethanesulfonic acid [5-((S or R)-5-chloro-3-ethyl-1-oxo-1,3-dihydro-isoindol-2-yl)-pyridin-3-ylmethyl]-amide]
59.4	3680	CC[C@H]1c2cc(Cl)ccc2C(=O)N1c1cncc2c1CCC[C@H]2NS(C)(=O)=O (single isomer, unassigned) [Example 350, N-[(R or S)-4-((S or R)-5-Chloro-3-ethyl-1-oxo-1,3-dihydro-isoindol-2-yl)-5,6,7,8-tetrahydro-isoquinolin-8-yl]-methanesulfonamide]
182	6030	O=C1NCCN1Cc1cncc(N2CCc3cc(Cl)ccc3C2=O)c1 [Example 158, 6-Chloro-2-[5-(2-oxo-imidazolidin-1-ylmethyl)-pyridin-3-yl]-3,4-dihydro-2H-isoquinolin-1-one]
101	3910	O=C1c2ccc(Cl)cc2C2(CC2)N1c1cncc(F)c1 [Example 290, 6′-Chloro-2′-(5-fluoropyridin-3-yl)spiro[cyclo-propane-1,1′-isoindol]-3′(2′H)-one]
115	3270	O=C1c2ccc(Cl)cc2CCN1c1cncc(-c2ccc(Cl)c(F)c2)c1 [Example 240, 6-Chloro-2-[5-(4-chloro-3-fluoro-phenyl)-pyridin-3-yl]-3,4-dihydro-2H-isoquinolin-1-one]
36.1	418	O=C1c2ccc(Cl)cc2CCN1c1cncc(Cn2cccn2)c1 [Example 160, 6-Chloro-2-(5-pyrazol-1-ylmethyl-pyridin-3-yl)-3,4-dihydro-2H-isoquinolin-1-one]
15.1	94.7	CC[C@@H]1c2cc(Cl)ccc2C(=O)N1c1cncc2c1CC[C@@H]2NC(C)=O (single isomer, unassigned) [Example 342, (+)-N—[(S or R)-4-((R or S)-5-Chloro-3-ethyl-1-oxo-1,3-dihydro-isoindol-2-yl)-6,7-dihydro-5H-[2]pyrindin-7-yl]-acetamide]
96.5	39400	CCC(=O)N[C@H]1CCCc2c1cncc2N1C(=O)c2ccc(Cl)cc2[C@H]1CC (single isomer, unassigned) [Example 352, N-[(S or R)-4-((R or S)-5-Chloro-3-ethyl-1-oxo-1,3-dihydro-isoindol-2-yl)-5,6,7,8-tetrahydro-isoquinolin-8-yl]-propionamide]
9.8	57.8	O=C1c2ccc(Cl)cc2CCN1c1cncc(Cn2ccnc2Cl)c1 [Example 176, 6-Chloro-2-[5-(2-chloro-imidazol-1-ylmethyl)-pyridin-3-yl]-3,4-dihydro-2H-isoquinolin-1-one]
15.5	240	COc1cncc(N2C(=O)c3ccc(Cl)cc3C2(C)C)c1 [Example 130, 5-Chloro-2-(5-methoxy-pyridin-3-yl)-3,3-dimethyl-2,3-dihydro-isoindol-1-one]
2.4	78.1	CC(C)Oc1cncc(N2C(=O)c3ccc(Cl)cc3C2(C)C)c1 [Example 304, 5-Chloro-2-(5-isopropoxy-pyridin-3-yl)-3,3-dimethyl-2,3-dihydro-isoindol-1-one]
18.8	146	CC(O)(c1ccccc1)c1cncc(N2CCc3cc(Cl)ccc3C2=O)c1 (stereo not shown) [Example 35, 6-Chloro-2-[5-(1-hydroxy-1-phenyl-ethyl)-pyridin-3-yl]-3,4-dihydro-2H-isoquinolin-1-one]
6	723	CC(C)N1CCN(Cc2cncc(N3C(=O)c4ccc(Cl)cc4C3(C)C)c2)C1=O [Example 416, 5-Chloro-2-[5-(3-isopropyl-2-oxo-imidazolidin-1-ylmethyl)-pyridin-3-yl]-3,3-dimethyl-2,3-dihydro-isoindol-1-one]
38.9	5330	CCC(=O)N1CC(Oc2cncc(N3C(=O)c4ccc(Cl)cc4C3(C)C)c2)C1 [Example 451, 5-Chloro-3,3-dimethyl-2-[5-(1-propionyl-azetidin-3-yloxy)-pyridin-3-yl]-2,3-dihydro-isoindol-1-one]
448	4430	O=C1c2ccc(Cl)cc2CCN1c1cnccc1C(O)c1ccc(F)cc1 (stereo not shown) [Example 63, 6-Chloro-2-{4-[(4-fluoro-phenyl)-hydroxy-methyl]-pyridin-3-yl}-3,4-dihydro-2H-isoquinolin-1-one]
67.1	1240	O=C1c2ccc(Cl)cc2CCN1c1cncc(Cl)c1 [Example 4, 6-Chloro-2-(5-chloro-pyridin-3-yl)-3,4-dihydro-2H-isoquinolin-1-one]
6.6	62	CC1(C)c2cc(Cl)ccc2C(=O)N1c1cncc(N2CC[C@H](O)C2)c1 [Example 454, 5-Chloro-2-[5-((S)-3-hydroxy-pyrrolidin-1-yl)-pyridin-3-yl]-3,3-dimethyl-2,3-dihydro-isoindol-1-one]
74.7	193	O=C1c2ccc(Cl)cc2CCN1c1cncc(CN2CCOCC2)c1 [Example 154, 6-Chloro-2-(5-morpholin-4-ylmethyl-pyridin-3-yl)-3,4-dihydro-2H-isoquinolin-1-one]
20.3	224	CC(C)OCc1cncc(N2CCc3cc(Cl)ccc3C2=O)c1 [Example 194, 6-Chloro-2-(5-isopropoxymethyl-pyridin-3-yl)-3,4-dihydro-2H-isoquinolin-1-one]
78.9	597	O=C1c2ccc(Cl)cc2CCN1c1cncc(CN2CCCS2(=O)=O)c1 [Example 82, 6-Chloro-2-[5-(1,1-dioxo-1^λ6-isothiazolidin-2-ylmethyl)-pyridin-3-yl]-3,4-dihydro-2H-isoquinolin-1-one]
